This note sets out measurements from ChEMBL document CHEMBL1147639, “Quinolines as extremely potent and selective PDE5 inhibitors as potential agents for treatment of erectile dysfunction” (Bioorg Med Chem Lett, 2004).

Where only a bound is given, the exact number is not on record here.

The nature of experiment [1]: Relative inhibition of rat kidney PDE4 and human platelet PDE 5.
Experiment [2] in a line: Relative inhibition of bovine retina PDE6 and human platelet PDE 5.
The nature of experiment [3]: Relative inhibition of bovine heart PDE1 and human platelet PDE5.
The target in experiment [4] is cGMP-specific 3',5'-cyclic phosphodiesterase (Homo sapiens, UniProt O76074). Nature of the experiment: Inhibition of phosphodiesterase 5 from human platelets.
The nature of experiment [5]: Relative inhibition of rat kidney PDE2 and human platelet PDE 5.
The target of experiment [6] is Phosphodiesterase 3 (Homo sapiens, UniProt Q14432+Q13370). Description: Inhibitory activity of compound against phosphodiesterase 3 was tested. Format: protein assay.
The target in experiment [7] is Phosphodiesterase 1 (Bos taurus, UniProt Q01061+P14100). Description: Inhibition of phosphodiesterase 1 of bovine heart. Format: protein assay.
Experiment [8] can be described thus: Inhibition of phosphodiesterase 4.
The target in experiment [9] is Phosphodiesterase 6. Description: Inhibition of phosphodiesterase 6. Type of experiment: protein assay.
Experiment [10] deals with cGMP-dependent 3',5'-cyclic phosphodiesterase (Rattus norvegicus) (UniProt Q01062). Nature of the experiment: Inhibition of phosphodiesterase 2.
cGMP-dependent 3',5'-cyclic phosphodiesterase (Rattus norvegicus), sequence (Q01062 whole entry, looked up): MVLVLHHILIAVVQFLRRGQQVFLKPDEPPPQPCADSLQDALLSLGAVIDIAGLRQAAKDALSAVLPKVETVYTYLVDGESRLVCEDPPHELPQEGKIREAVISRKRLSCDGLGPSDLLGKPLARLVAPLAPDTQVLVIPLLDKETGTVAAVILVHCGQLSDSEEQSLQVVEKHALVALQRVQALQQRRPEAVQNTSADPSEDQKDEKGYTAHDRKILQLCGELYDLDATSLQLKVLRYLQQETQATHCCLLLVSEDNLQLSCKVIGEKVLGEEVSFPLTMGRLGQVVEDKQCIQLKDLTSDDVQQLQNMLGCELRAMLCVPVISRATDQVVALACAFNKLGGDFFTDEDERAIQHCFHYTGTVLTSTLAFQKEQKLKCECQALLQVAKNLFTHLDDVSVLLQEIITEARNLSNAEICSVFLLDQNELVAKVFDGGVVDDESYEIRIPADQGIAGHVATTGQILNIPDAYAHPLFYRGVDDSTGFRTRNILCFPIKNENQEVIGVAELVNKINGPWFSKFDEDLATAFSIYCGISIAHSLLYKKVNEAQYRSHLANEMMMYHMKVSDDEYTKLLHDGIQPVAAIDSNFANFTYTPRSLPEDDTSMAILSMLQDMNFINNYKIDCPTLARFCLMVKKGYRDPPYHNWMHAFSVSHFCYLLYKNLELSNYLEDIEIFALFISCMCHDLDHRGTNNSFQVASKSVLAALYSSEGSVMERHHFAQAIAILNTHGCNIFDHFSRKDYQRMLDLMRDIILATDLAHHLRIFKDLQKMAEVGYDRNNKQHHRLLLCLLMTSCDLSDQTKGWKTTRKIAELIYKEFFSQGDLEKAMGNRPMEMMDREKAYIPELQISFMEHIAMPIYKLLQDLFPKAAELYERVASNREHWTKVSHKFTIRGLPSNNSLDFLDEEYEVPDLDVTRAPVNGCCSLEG

A word on the IC50: it is the concentration at which inhibition is half-maximal. The low end stands for greater potency, the high end for weaker potency. Regarding `CCOC(=O)c1cnc2c(CC)cc(C#N)cc2c1NCc1ccc(OC)c(Cl)c1`, the Selectivity ratio in experiment [1] is over 100000; in experiment [2] it was 110; in experiment [3], over 100000; in experiment [5] it was over 100000. For the same molecule, half-maximal inhibition in experiment [4] (IC50) was put at 0.6 nM.

Turning to `CCOC(=O)c1cnc2cc(C(F)(F)F)ccc2c1NCc1ccc(OC)c(Cl)c1`, the IC50 was over 50000 nM in experiment [6]; over 50000 nM in experiment [7]; over 50000 nM in [8]; 20000 nM in experiment [9]; 160 nM in experiment [4]; over 50000 nM in experiment [10]. The Selectivity ratio in [1] is over 310; in experiment [2], 125; in experiment [3] it was over 310; in experiment [5], over 310.

For the molecule `CCc1cc(C#N)cc2c(NCc3ccc(OC)c(Cl)c3)ccnc12`, the results for the Selectivity ratio in experiment [1] and in experiment [2] were 2200 and 40, respectively.

With `COc1ccc(CNc2c(C(=O)NCc3ccccn3)cnc3ccc(C#N)cc23)cc1Cl`, the Selectivity ratio in experiment [1] is 3100; in experiment [2] it was 64; in [3], over 100000; in [5], over 100000. Moreover, in experiment [4], it took 1.3 nM to reach half-maximal inhibition (IC50).

Regarding `CCc1cc(C#N)cc2c(NCc3ccc(OC)c(Cl)c3)c(CO)cnc12`, the Selectivity ratio is 7800 in [2], over 1e+06 in [3] and over 100000 in experiment [5]. This molecule also displayed an IC50 in experiment [4] of 0.05 nM.

For the molecule `CCOC(=O)c1cnc2ccc(C(F)(F)F)cc2c1NCc1ccc(OC)c(Cl)c1`, the Selectivity ratio in [1] was 247; in experiment [2], 75; in experiment [3], over 680; in experiment [5] it was over 680. This molecule also had an IC50 in [4] of 73 nM.

`CCOC(=O)c1cnc2ccc(C#N)cc2c1NCc1ccc(OC)c(Cl)c1`: the Selectivity ratio in experiment [1] was 3800; in [2], 15; in experiment [5], over 100000.

Turning to `COc1ccc(CNc2ccnc3ccc(C#N)cc23)cc1Cl`, the Selectivity ratio in experiment [1] was 3500; in experiment [2] it was 29; in experiment [3], 6400; in experiment [5], over 100000. Half-maximal inhibition in [4] (IC50) required 1.4 nM.

`COc1ccc(CNc2c(CO)cnc3ccc(C#N)cc23)cc1Cl`: the Selectivity ratio was over 100000 in experiment [1], 23 in experiment [2], over 100000 in experiment [3] and 8600 in [5]. The IC50 in experiment [4] came out at 0.48 nM.

Regarding `CCc1cc(C#N)cc2c(NCc3ccc(OC)c(Cl)c3)c(C(=O)NCc3ccccn3)cnc12`, the Selectivity ratio turned out to be 4500 in experiment [1] and 82 in experiment [2]. The molecule further had an IC50 in experiment [4] of 0.55 nM.
